Laboratory results as given in patent US12479847B2 (DANA-FARBER CANCER INSTITUTE, INC., priority 2019, dated 2025).
Read-outs that look alike come from different tables or passages of the source.

What was measured:
Experiment in all cases: KINOMEscan (ScanMAX) kinase profiling
Assay type in all cases: binding
panel of 468 kinases [1] = target: T1, panel of 468 kinases (Homo sapiens, UniProt P00519, T315I); conditions: 1 μM, read-out: % control
T1 construct: purchased KINOMEscan (ScanMAX) service

panel of 468 kinases [2] = target: T2, panel of 468 kinases (Homo sapiens, UniProt O00506); conditions: YSK1; 1 μM; read-out: % control
T2 construct: purchased KINOMEscan (ScanMAX) service

panel of 468 kinases [3] = target: T3, panel of 468 kinases (Homo sapiens, UniProt P20794); conditions: MAK; 1 μM; read-out: % control
T3 construct: purchased KINOMEscan (ScanMAX) service
T3 sequence (P20794 1-623): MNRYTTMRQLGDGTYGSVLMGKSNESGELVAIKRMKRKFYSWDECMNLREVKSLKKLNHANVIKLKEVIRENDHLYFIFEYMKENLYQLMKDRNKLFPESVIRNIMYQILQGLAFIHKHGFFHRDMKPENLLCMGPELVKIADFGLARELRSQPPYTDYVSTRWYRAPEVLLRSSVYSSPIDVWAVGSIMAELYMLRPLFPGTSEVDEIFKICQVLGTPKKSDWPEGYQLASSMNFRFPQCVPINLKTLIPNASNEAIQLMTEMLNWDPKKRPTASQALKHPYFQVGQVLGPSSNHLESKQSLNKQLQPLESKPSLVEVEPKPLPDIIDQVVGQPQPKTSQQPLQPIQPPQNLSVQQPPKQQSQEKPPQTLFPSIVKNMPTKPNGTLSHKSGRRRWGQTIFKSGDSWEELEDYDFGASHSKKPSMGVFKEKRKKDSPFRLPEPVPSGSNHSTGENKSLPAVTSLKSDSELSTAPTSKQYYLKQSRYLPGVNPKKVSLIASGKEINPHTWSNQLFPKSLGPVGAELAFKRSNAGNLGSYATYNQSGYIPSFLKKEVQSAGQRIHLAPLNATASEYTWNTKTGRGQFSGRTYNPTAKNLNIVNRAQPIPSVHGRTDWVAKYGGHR

panel of 468 kinases [4] = target: T4, panel of 468 kinases (Homo sapiens, UniProt Q15835); conditions: GRK1; 1 μM; read-out: % control
T4 construct: purchased KINOMEscan (ScanMAX) service
T4 sequence (Q15835 1-563): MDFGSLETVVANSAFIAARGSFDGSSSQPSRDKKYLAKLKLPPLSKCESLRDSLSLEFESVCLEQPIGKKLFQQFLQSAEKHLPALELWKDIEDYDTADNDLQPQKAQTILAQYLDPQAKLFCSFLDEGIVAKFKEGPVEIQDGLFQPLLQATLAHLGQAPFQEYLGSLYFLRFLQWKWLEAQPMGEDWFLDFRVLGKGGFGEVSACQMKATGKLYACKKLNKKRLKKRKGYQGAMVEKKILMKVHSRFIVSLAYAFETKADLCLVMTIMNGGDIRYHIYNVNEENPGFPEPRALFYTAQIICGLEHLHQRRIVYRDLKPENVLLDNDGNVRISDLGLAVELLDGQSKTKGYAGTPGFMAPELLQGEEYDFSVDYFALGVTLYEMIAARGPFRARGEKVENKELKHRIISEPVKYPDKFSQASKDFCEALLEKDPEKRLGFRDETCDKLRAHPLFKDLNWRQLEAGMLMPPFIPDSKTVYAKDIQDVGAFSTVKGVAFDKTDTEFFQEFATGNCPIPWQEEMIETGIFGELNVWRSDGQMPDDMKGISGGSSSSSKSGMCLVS

panel of 468 kinases [5] = target: T5, panel of 468 kinases (Homo sapiens, UniProt P31751); conditions: AKT2; 1 μM; read-out: % control
T5 construct: purchased KINOMEscan (ScanMAX) service

panel of 468 kinases [6] = target: T6, panel of 468 kinases (Homo sapiens, UniProt Q9BXA7); conditions: TSSK1B; 1 μM; read-out: % control
T6 construct: purchased KINOMEscan (ScanMAX) service
T6 sequence (Q9BXA7 1-367): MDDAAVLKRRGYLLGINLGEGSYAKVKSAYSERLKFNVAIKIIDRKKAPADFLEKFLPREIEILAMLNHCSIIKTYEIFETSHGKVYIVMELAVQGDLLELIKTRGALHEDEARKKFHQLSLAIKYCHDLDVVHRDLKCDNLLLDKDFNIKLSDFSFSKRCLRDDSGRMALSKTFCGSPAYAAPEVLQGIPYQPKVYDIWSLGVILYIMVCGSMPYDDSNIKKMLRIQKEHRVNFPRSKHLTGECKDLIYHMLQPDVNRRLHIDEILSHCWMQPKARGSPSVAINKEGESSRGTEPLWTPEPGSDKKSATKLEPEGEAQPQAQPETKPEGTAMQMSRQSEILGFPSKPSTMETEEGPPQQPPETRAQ

panel of 468 kinases [7] = target: T7, panel of 468 kinases (Homo sapiens, UniProt P53671); conditions: LIMK2; 1 μM; read-out: % control
T7 construct: purchased KINOMEscan (ScanMAX) service

panel of 468 kinases [8] = target: T8, panel of 468 kinases (Homo sapiens, UniProt P06239); conditions: LCK; 1 μM; read-out: % control
T8 construct: purchased KINOMEscan (ScanMAX) service

panel of 468 kinases [9] = target: T9, panel of 468 kinases (Homo sapiens, UniProt O14730); conditions: RIOK3; 1 μM; read-out: % control
T9 construct: purchased KINOMEscan (ScanMAX) service
T9 sequence (O14730 1-519): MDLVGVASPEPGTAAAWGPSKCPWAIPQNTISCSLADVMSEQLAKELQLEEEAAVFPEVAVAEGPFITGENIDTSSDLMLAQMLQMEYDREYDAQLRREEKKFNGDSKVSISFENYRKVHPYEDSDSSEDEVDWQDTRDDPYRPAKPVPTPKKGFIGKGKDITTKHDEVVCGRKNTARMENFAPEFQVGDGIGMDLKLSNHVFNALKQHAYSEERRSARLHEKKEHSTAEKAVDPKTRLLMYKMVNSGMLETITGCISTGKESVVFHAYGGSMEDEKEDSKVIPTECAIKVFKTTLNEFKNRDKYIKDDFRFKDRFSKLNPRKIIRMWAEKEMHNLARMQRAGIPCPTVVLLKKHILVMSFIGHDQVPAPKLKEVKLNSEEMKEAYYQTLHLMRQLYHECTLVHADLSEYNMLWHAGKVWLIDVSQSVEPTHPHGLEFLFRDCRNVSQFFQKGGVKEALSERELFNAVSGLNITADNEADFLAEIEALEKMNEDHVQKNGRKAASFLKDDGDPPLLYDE

T8 sequence (P06239 whole entry): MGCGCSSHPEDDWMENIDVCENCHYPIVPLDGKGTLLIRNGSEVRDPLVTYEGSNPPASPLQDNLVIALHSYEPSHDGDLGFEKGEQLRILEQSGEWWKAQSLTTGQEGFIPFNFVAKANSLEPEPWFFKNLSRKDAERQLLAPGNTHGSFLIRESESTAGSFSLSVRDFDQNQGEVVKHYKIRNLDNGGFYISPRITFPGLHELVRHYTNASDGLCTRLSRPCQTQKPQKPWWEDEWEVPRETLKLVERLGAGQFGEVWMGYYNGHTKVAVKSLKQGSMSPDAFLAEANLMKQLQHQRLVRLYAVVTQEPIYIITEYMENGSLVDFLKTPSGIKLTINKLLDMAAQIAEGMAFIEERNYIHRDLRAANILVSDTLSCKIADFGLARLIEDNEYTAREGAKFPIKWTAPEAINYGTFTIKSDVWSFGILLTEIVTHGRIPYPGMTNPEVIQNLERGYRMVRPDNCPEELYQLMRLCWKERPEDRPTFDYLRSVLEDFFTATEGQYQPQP
T7 sequence (P53671 whole entry): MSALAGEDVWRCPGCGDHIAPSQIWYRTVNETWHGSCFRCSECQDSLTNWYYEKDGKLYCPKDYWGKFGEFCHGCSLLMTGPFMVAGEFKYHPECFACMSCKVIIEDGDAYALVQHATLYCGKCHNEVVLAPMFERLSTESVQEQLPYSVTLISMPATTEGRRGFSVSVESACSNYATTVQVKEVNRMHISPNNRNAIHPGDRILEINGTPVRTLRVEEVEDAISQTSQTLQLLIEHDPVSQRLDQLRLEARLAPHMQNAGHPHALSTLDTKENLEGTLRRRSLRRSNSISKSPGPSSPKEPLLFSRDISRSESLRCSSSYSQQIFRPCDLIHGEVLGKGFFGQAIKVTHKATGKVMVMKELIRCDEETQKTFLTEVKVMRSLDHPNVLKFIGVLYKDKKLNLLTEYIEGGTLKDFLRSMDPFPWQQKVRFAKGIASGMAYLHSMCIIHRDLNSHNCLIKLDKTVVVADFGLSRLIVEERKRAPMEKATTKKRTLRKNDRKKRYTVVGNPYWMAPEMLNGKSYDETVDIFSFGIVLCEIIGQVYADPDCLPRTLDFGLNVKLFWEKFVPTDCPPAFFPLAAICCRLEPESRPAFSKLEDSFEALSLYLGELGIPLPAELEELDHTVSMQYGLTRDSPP
T5 sequence (P31751 whole entry): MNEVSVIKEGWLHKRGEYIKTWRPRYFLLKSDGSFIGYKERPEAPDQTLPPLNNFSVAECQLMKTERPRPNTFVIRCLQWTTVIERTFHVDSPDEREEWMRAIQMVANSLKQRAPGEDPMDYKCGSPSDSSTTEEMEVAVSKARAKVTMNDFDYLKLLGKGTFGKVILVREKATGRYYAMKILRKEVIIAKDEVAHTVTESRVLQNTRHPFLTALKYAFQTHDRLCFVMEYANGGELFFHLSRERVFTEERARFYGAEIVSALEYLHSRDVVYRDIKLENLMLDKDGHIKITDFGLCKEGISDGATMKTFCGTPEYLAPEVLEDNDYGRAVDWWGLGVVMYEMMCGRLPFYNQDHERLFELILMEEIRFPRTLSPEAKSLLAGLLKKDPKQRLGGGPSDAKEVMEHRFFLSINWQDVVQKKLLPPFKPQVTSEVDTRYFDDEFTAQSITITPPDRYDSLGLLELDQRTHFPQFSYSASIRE
T2 sequence (O00506 whole entry): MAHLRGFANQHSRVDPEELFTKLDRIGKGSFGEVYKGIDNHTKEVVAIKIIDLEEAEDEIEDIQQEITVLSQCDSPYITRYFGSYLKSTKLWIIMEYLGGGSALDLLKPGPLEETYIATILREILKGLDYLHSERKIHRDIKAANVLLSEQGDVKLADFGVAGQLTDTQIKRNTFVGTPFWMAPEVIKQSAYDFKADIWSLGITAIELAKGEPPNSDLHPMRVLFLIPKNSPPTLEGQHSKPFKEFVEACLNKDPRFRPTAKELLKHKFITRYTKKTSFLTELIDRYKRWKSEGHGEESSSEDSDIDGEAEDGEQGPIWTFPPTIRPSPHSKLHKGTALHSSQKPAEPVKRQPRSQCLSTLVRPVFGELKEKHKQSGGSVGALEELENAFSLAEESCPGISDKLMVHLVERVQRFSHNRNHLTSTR

SMILES | remaining binding at 1 µM (panel of 468 kinases [1]; ABL1(T315I)-nonphosphorylated) [%] | remaining binding at 1 µM (panel of 468 kinases [1]; ABL1(T315I)-phosphorylated) [%] | remaining binding at 1 µM (panel of 468 kinases [2]) [%] | remaining binding at 1 µM (panel of 468 kinases [3]) [%] | remaining binding at 1 µM (panel of 468 kinases [4]) [%] | remaining binding at 1 µM (panel of 468 kinases [5]) [%] | remaining binding at 1 µM (panel of 468 kinases [6]) [%] | remaining binding at 1 µM (panel of 468 kinases [7]) [%] | remaining binding at 1 µM (panel of 468 kinases [8]) [%] | remaining binding at 1 µM (panel of 468 kinases [9]) [%]
CNc1nc(Nc2ccc(S(=O)(=O)N3CCC(N4CCOCC4)CC3)cc2OC)nc2[nH]cc(Cl)c12 [Compound 12, 5-chloro-N2-(2-methoxy-4-((4-morpholinopiperidin-1-yl)sulfonyl)phenyl)-N4-methyl-7H-pyrrolo[2,3-d]pyrimidine-2,4-diamine] | 94 | 100 | 100 | 100 | 79 | 100 | 72 | 100 | 91 | 89
CNc1nc(Nc2ccc(P3(=O)CCN(C4CCOCC4)CC3)cc2OC)nc2[nH]cc(Cl)c12 [Compound 77, 4-(4-((5-chloro-4-(methylamino)-7H-pyrrolo[2,3-d]pyrimidin-2-yl)amino)-3-methoxyphenyl)-1-(tetrahydro-2H-pyran-4-yl)-1,4-azaphosphinane 4-oxide] | 99 | 77 | 100 | 100 | 88 | 100 | 33 | 84 | 100 | 88
CNc1nc(Nc2ccc(C(=O)N3CCC(N4CCOCC4)CC3)c3c2OCO3)nc2[nH]cc(Cl)c12 [Compound 75, (7-((5-chloro-4-(methylamino)-7H-pyrrolo[2,3-d]pyrimidin-2-yl)amino)benzo[d][1,3]dioxol-4-yl)(4-morpholinopiperidin-1-yl)methanone] | 100 | 60 | 100 | 100 | 88 | 100 | 49 | 99 | 100 | 28
